PMC8426238, “Synthesis and preclinical evaluation of [^11C]MTP38 as a novel PET ligand for phosphodiesterase 7 in the brain” (European Journal of Nuclear Medicine and Molecular Imaging, 2021)

Legend:
Adenosine A2A = biological target: T1, Adenosine A2A (Homo sapiens, UniProt P29274); assay: off-target screen panel; assay type: binding; details: Human recombinant, [^3H]CGS-21680
T1 construct: purchased Eurofins Panlabs Discovery Services (Taiwan)

Adenosine A3 = biological target: T2, Adenosine A3 (Homo sapiens, UniProt P0DMS8); assay: off-target screen panel; assay type: binding; details: Human recombinant, [^125I]AB-MECA
T2 construct: purchased Eurofins Panlabs Discovery Services (Taiwan)
T2 sequence (P0DMS8 whole entry): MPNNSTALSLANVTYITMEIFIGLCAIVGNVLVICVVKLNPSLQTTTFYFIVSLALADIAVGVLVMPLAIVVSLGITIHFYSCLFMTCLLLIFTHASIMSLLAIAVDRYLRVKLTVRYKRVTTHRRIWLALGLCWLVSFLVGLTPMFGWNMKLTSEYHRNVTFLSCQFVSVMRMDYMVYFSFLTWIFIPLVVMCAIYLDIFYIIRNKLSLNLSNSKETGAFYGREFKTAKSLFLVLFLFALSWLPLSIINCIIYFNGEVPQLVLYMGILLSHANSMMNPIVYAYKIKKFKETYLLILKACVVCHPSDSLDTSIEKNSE

Adrenergic α1B = biological target: T3, Adrenergic α1B (Rattus norvegicus, UniProt P15823); assay: off-target screen panel; assay type: binding; details: Rat liver, [^3H]Prazosin
T3 construct: purchased Eurofins Panlabs Discovery Services (Taiwan)

Adrenergic α1D = biological target: T4, Adrenergic α1D (Homo sapiens, UniProt P25100); assay: off-target screen panel; assay type: binding; details: Human recombinant, [^3H]Prazosin
T4 construct: purchased Eurofins Panlabs Discovery Services (Taiwan)

Androgen (Testosterone) = biological target: T5, Androgen (Testosterone) (Homo sapiens, UniProt P10275); assay: off-target screen panel; assay type: binding; details: Human LNCaP clone, [^3H]Methyltrienolone
T5 construct: purchased Eurofins Panlabs Discovery Services (Taiwan)
T5 sequence (P10275 whole entry): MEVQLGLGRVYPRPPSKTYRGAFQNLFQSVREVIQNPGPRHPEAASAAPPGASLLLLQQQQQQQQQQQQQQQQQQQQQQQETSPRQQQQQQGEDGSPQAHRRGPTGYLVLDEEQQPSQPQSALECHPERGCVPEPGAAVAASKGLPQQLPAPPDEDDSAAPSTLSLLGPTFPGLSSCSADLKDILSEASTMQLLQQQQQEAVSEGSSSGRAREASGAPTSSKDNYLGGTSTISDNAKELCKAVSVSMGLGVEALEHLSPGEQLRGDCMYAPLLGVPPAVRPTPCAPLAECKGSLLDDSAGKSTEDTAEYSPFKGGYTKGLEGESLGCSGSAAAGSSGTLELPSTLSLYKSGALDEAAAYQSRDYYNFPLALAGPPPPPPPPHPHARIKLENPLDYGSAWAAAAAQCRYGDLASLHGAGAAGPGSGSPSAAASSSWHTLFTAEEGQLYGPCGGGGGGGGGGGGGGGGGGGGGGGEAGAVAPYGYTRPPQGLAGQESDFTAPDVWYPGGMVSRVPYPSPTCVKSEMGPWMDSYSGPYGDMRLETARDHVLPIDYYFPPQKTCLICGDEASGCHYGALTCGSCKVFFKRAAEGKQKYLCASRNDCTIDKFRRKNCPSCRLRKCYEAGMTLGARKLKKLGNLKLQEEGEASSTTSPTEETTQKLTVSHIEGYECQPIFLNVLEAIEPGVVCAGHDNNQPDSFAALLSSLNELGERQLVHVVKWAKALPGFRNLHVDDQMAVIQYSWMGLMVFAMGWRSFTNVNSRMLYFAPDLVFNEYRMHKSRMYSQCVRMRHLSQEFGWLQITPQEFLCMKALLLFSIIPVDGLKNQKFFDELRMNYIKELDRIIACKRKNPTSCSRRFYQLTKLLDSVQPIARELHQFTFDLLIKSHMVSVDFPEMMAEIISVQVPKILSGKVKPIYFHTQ

[1] = tested on: Calcium Channel L-Type, Benzothiazepine; assay: off-target screen panel; assay type: binding; details: Rat brain, [^3H]Diltiazem
[2] = tested on: Calcium Channel L-Type, Dihydropyridine; assay: off-target screen panel; assay type: binding; details: Rat cerebral cortex, [^3H]Nitrendipine
Calcium Channel N-Type = biological target: T6, Calcium Channel N-Type (Rattus norvegicus, UniProt Q02294); assay: off-target screen panel; assay type: binding; details: read-out: Inhibition (%) at 1 μM
T6 construct: purchased Eurofins Panlabs Discovery Services (Taiwan)

Dopamine D4.2 = biological target: T7, Dopamine D4.2 (Homo sapiens, UniProt P21917, DEL265-296); assay: off-target screen panel; assay type: binding; details: Human recombinant, [^3H]Spiperone
T7 construct: purchased Eurofins Panlabs Discovery Services (Taiwan)

Endothelin ETA = biological target: T8, Endothelin ETA (Homo sapiens, UniProt P25101); assay: off-target screen panel; assay type: binding; details: Human recombinant, [^125I]Endothelin-1
T8 construct: purchased Eurofins Panlabs Discovery Services (Taiwan)

Endothelin ETB = biological target: T9, Endothelin ETB (Homo sapiens, UniProt P24530); assay: off-target screen panel; assay type: binding; details: Human recombinant, [^125I]Endothelin-1
T9 construct: purchased Eurofins Panlabs Discovery Services (Taiwan)
T9 sequence (P24530 27-442): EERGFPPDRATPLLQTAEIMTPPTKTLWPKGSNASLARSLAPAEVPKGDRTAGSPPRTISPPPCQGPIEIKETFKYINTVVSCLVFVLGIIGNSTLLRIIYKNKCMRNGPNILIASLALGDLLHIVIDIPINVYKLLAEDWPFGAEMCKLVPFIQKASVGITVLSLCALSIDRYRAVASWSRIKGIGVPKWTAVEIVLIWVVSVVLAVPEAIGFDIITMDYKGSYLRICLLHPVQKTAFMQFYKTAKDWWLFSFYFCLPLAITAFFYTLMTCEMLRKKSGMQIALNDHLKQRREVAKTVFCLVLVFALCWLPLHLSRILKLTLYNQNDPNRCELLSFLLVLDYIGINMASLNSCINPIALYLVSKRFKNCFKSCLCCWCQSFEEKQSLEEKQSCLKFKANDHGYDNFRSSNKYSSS

GABAA, Muscimol, Central = assay: off-target screen panel; assay type: binding; details: Rat brain (minus cerebellum), [^3H]Muscimol
Glucocorticoid = biological target: T10, Glucocorticoid (Homo sapiens, UniProt P04150); assay: off-target screen panel; assay type: binding; details: Human recombinant, [^3H]Dexamethasone
T10 construct: purchased Eurofins Panlabs Discovery Services (Taiwan)
T10 sequence (P04150 whole entry): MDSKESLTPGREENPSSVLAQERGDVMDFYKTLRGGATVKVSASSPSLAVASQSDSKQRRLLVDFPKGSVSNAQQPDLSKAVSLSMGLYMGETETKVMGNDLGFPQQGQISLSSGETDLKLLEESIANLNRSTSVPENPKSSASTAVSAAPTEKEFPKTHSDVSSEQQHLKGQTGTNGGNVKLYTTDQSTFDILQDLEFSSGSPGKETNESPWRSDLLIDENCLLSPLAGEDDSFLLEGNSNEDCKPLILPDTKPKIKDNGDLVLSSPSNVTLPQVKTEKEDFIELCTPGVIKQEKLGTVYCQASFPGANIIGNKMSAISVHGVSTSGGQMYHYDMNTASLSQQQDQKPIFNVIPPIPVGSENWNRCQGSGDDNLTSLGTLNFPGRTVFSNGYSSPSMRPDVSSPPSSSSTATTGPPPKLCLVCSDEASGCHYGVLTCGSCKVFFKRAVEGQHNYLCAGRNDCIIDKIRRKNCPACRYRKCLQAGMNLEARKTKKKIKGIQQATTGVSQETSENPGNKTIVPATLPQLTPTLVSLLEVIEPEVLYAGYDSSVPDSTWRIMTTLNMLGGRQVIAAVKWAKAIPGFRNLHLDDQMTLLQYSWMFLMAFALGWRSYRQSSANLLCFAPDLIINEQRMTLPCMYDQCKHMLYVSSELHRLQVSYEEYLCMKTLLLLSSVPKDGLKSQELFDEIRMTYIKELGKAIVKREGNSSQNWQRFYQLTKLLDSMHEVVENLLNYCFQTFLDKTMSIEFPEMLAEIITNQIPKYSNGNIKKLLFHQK

Glutamate, Kainate = assay: off-target screen panel; assay type: binding; details: Rat brain cortex, [^3H]Kainic acid
Glutamate, NMDA, Glycine = Glutamate, NMDA, Glycine (Rattus norvegicus, UniProt P35439); assay: off-target screen panel; assay type: binding; details: Rat cerebral cortex, [^3H]MDL 105,519
Histamine H2 = biological target: T11, Histamine H2 (Homo sapiens, UniProt P25021); assay: off-target screen panel; assay type: binding; details: Human recombinant, [^125I]Aminopotentidine
T11 construct: purchased Eurofins Panlabs Discovery Services (Taiwan)
T11 sequence (P25021 whole entry): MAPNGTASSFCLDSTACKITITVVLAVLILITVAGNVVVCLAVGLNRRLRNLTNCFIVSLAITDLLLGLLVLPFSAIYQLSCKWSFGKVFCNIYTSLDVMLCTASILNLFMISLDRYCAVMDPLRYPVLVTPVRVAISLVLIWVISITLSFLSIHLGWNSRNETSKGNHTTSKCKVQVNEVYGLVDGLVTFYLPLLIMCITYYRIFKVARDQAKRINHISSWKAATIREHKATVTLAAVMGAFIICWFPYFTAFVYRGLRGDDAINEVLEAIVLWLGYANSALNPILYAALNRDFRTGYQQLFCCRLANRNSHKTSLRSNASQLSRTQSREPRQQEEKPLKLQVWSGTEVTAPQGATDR

Histamine H3 = biological target: T12, Histamine H3 (Homo sapiens, UniProt Q9Y5N1); assay: off-target screen panel; assay type: binding; details: Human recombinant, [^3H]N-α-Methylhistamine
T12 construct: purchased Eurofins Panlabs Discovery Services (Taiwan)
T12 sequence (Q9Y5N1 whole entry): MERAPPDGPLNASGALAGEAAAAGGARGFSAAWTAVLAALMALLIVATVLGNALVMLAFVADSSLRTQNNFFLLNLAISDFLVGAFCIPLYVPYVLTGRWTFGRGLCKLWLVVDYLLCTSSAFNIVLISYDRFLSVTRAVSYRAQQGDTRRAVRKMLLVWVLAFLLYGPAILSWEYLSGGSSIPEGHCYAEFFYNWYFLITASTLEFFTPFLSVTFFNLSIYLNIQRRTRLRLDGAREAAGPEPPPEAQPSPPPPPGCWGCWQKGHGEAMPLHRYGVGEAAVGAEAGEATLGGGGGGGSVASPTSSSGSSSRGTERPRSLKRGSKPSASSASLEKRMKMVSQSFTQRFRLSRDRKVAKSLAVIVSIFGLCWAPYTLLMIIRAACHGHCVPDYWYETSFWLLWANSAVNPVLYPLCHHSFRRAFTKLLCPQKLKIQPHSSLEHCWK

Interleukin IL-1 R1 = biological target: T13, Interleukin IL-1 R1 (Homo sapiens, UniProt P14778); assay: off-target screen panel; assay type: binding; details: Human recombinant, [^125I]Interleukin-1β
T13 construct: purchased Eurofins Panlabs Discovery Services (Taiwan)

[3] = biological target: T14, Leukotriene, Cysteinyl CysLT1 (Homo sapiens, UniProt Q9Y271); assay: off-target screen panel; assay type: binding; details: Human recombinant, [^3H]LTD4
T14 construct: purchased Eurofins Panlabs Discovery Services (Taiwan)

Melatonin MT1 = biological target: T15, Melatonin MT1 (Homo sapiens, UniProt P48039); assay: off-target screen panel; assay type: binding; details: Human recombinant, [^125I]2-Iodomelatonin
T15 construct: purchased Eurofins Panlabs Discovery Services (Taiwan)

Muscarinic M3 = biological target: T16, Muscarinic M3 (Homo sapiens, UniProt P20309); assay: off-target screen panel; assay type: binding; details: Human recombinant, [^3H]N-Methylscopolamine
T16 construct: purchased Eurofins Panlabs Discovery Services (Taiwan)

Nicotinic Acetylcholine = assay: off-target screen panel; assay type: binding; details: Human IMR-32 cells, [^125I]Epibatidine
Opiate μ (OP3, MOP) = biological target: T17, Opiate μ (OP3, MOP) (Homo sapiens, UniProt P35372); assay: off-target screen panel; assay type: binding; details: Human recombinant, [^3H]Diprenorphine
T17 construct: purchased Eurofins Panlabs Discovery Services (Taiwan)
T17 sequence (P35372 whole entry): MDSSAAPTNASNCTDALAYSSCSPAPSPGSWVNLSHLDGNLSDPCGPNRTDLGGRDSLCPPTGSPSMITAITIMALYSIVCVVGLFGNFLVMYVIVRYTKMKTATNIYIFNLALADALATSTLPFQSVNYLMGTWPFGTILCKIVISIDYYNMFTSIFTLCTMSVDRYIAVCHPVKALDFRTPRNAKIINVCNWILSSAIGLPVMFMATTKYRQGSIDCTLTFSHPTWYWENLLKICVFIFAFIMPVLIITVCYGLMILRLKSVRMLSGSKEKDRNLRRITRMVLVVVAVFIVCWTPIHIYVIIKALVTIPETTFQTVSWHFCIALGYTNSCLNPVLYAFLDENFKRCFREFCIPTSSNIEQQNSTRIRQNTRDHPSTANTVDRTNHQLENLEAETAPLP

Prostanoid EP4 = biological target: T18, Prostanoid EP4 (Homo sapiens, UniProt P35408); assay: off-target screen panel; assay type: binding; details: Human recombinant, [^3H]Prostaglandin E2 (PGE2)
T18 construct: purchased Eurofins Panlabs Discovery Services (Taiwan)
T18 sequence (P35408 whole entry): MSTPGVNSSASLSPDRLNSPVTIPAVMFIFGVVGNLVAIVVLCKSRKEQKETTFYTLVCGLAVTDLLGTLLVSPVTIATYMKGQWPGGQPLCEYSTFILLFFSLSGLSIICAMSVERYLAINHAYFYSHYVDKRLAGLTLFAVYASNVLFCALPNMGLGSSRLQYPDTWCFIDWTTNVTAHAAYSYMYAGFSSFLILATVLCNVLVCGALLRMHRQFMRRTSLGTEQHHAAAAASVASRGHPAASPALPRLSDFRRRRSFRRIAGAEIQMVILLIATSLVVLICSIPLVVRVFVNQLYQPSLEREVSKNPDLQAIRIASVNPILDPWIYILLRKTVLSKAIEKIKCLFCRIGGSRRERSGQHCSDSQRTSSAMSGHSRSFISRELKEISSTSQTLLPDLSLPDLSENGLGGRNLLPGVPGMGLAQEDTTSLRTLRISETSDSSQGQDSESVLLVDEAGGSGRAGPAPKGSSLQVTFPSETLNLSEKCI

[4] = biological target: T19, Serotonin (5-Hydroxytryptamine) 5-HT2B (Homo sapiens, UniProt P41595); assay: off-target screen panel; assay type: binding; details: Human recombinant, [^3H]Lysergic acid diethylamide (LSD)
T19 construct: purchased Eurofins Panlabs Discovery Services (Taiwan)

[5] = biological target: T20, Serotonin (5-Hydroxytryptamine) 5-HT3 (Homo sapiens, UniProt P46098); assay: off-target screen panel; assay type: binding; details: Human recombinant, [^3H]GR-65630
T20 construct: purchased Eurofins Panlabs Discovery Services (Taiwan)
T20 sequence (P46098 24-478): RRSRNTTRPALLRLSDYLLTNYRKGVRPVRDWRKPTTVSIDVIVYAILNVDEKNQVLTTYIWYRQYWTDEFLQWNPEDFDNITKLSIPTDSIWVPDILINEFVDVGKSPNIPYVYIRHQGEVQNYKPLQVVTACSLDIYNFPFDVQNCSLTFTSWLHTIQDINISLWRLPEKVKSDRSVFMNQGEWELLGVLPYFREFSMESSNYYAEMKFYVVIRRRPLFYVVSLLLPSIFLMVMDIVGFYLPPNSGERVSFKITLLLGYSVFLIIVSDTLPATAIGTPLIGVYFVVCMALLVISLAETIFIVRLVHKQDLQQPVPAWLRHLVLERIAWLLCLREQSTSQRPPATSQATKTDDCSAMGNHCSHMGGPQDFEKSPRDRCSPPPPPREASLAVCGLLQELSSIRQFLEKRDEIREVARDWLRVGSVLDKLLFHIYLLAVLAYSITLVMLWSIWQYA

Sodium Channel, Site 2 = assay: off-target screen panel; assay type: binding; details: Rat brain, [^3H]Batrachotoxinin
[6] = biological target: T21, Transporter, Dopamine (DAT) (Homo sapiens, UniProt Q01959); assay: off-target screen panel; assay type: binding; details: Human recombinant, [^125I]RTI-55
T21 construct: purchased Eurofins Panlabs Discovery Services (Taiwan)

[7] = biological target: T22, Transporter, Norepinephrine (NET) (Homo sapiens, UniProt P23975); assay: off-target screen panel; assay type: binding; details: Human recombinant, [^125I]RTI-55
T22 construct: purchased Eurofins Panlabs Discovery Services (Taiwan)

67 non-PDE molecules = assay: off-target screen panel, overall statement; assay type: binding; details: all 67 non-PDE molecules of the panel
PDE7 = assay: In vitro autoradiography of rat brain sections with [^11C]MTP38; assay type: binding, Sprague-Dawley rats; details: [^11C]MTP38 2 nM, unlabeled MTP38 10 μM, MTP-X 4 μM, MT-3014 40 nM
Description: In vitro autoradiography was performed using 20-μm-thick fresh-frozen brain sections derived from Sprague-Dawley rats and rhesus monkeys. The sections were preincubated for 10 min in 50 mM Tris-HCl buffer (pH 7.4) at room temperature. These samples were then incubated for 60 min at room temperature in fresh buffer containing [^11C]MTP38 (2 nM) with or without unlabeled MTP38 (10 μM), MTP-X (4 μM), or MT-3014 (40 nM). The concentrations of MTP-X and MT-3014 were more than 400-fold of reported IC50 values of these agents. After the incubation, the brain sections were immersed twice in cold buffer for 3 min, dipped in cold distilled water for 10 s, and dried with warm airflow. Then the sections were contacted with imaging plates (BAS-MS2025, Fujifilm, Tokyo, Japan) for 60 min. The imaging plates were scanned with an imaging plate reader (BAS5000, Fujifilm, Tokyo, Japan), and the images were analyzed with the MultiGuage software (ver. 3.0, Fujifilm, Tokyo, Japan).

Solubility = assay type: physicochemical

T1 sequence (P29274 whole entry): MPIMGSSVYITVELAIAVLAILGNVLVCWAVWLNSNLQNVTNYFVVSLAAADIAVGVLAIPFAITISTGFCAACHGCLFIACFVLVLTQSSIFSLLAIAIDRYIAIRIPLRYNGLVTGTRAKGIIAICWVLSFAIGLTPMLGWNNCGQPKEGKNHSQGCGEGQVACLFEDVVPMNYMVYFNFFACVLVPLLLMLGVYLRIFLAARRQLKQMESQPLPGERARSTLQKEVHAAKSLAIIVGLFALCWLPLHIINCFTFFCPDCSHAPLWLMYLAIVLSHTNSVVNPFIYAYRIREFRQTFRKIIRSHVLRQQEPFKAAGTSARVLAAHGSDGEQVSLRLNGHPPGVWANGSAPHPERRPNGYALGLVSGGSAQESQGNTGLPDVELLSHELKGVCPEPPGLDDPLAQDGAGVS

For `C[C@@H]1CC[C@H](C)N(c2nnc3c(N)ncc(C#N)n23)C1` (relative stereo) [MTP38, 8-amino-3-(2S*,5R*-dimethyl-1-piperidyl)-[1,2,4]triazolo[4,3-a]pyrazine-5-carbonitrile], the inhibition at 1 µM (Adenosine A2A) was 4%, the inhibition at 1 µM (Adenosine A3) was 10% and the inhibition at 1 µM (Adrenergic α1B) was -3%. The inhibition at 1 µM (Adrenergic α1D) was -3%, the inhibition at 1 µM (Androgen (Testosterone)) was 1% and the “Inhibition (%) at 1 μM” value [1] was 16%. For the same molecule, the “Inhibition (%) at 1 μM” value [2] was 7%, the inhibition at 1 µM (Calcium Channel N-Type) was 1% and the inhibition at 1 µM (Dopamine D4.2) was -3%. The inhibition at 1 µM (Endothelin ETA) was -10%, the inhibition at 1 µM (Endothelin ETB) was 3% and the “Inhibition (%) at 1 μM” value (GABAA, Muscimol, Central) was -10%. For the same molecule, the inhibition at 1 µM (Glucocorticoid) was 0%, the “Inhibition (%) at 1 μM” value (Glutamate, Kainate) was -2% and the inhibition at 1 µM (Glutamate, NMDA, Glycine) was -15%. The inhibition at 1 µM (Histamine H2) was -9%, the inhibition at 1 µM (Histamine H3) was 9% and the inhibition at 1 µM (Interleukin IL-1 R1) was -5%. The inhibition at 1 µM [3] was 4%, the inhibition at 1 µM (Melatonin MT1) was 7% and the inhibition at 1 µM (Muscarinic M3) was -21%. The “Inhibition (%) at 1 μM” value (Nicotinic Acetylcholine) was -8%, the inhibition at 1 µM (Opiate μ (OP3, MOP)) was 4% and the inhibition at 1 µM (Prostanoid EP4) was 8%. The inhibition at 1 µM [4] was -1%, the inhibition at 1 µM [5] was -11% and the “Inhibition (%) at 1 μM” value (Sodium Channel, Site 2) was 1%. The inhibition at 1 µM [6] was 22%, the inhibition at 1 µM [7] was 6% and the “inhibitions at 1 μM of the 67 non-PDE molecules tested” value (67 non-PDE molecules) was “less than 50%”. For the same molecule, the “effect of blocker on striatal radioactivity of [^11C]MTP38” value (PDE7) was “reduced the striatal radioactivity” and the solubility (Solubility) was “low solubility”.
